Values joined by “and” are separate entries in the source; they are usually repeats but may differ in a detail not shown here. Equal entries are not always repeated. After the bases stand the sugars from the 5' end (letter, count) and the backbone: PS all phosphorothioate, else s phosphorothioate and o phosphodiester by linkage. Methylation of C is not given here. k = constrained ethyl (cEt); d = 2'-deoxy (DNA)
Biological target: MALAT1
Details: ASO, A431, 0.005 µM

| Sequence | target mRNA inhibition |
| --- | --- |
| GCCGCCTCTTAAAGCA (sugars k3 d10 k3, PS) | -11% |
| AGTAAGAATCTCAGGG (sugars k3 d10 k3, PS) | 45% |
| TTTTAAAAAGGCTCGA (sugars k3 d10 k3, PS) | 12% |
| TACTTGTCTTAGCTTG (sugars k3 d10 k3, PS) | 51% |
| CCTTAGGATAATAGCG (sugars k3 d10 k3, PS) | 60% and 51% |
| AGTCCTAGCTTCATCA (sugars k3 d10 k3, PS) | 27% |
| AGTATTACTCTAATCA (sugars k3 d10 k3, PS) | 23% |
| TGGAAAGCGAGTTCAA (sugars k3 d10 k3, PS) | -4% |
| CACCAATCCCAACCGT (sugars k3 d10 k3, PS) | 5% |
| ATTACCTAAACCCACC (sugars k3 d10 k3, PS) | -10% |
| GATTTGAACCCCGTCC (sugars k3 d10 k3, PS) | -2% |
| AACTCCAAGAACTAGC (sugars k3 d10 k3, PS) | 30% |
| CCAGGAGTGCCAACCA (sugars k3 d10 k3, PS) | 5% |
| TCCCTATATAAGGTCA (sugars k3 d10 k3, PS) | 5% |
| CCCCAATCAAGATTTT (sugars k3 d10 k3, PS) | -21% |
| ATAACAAGTTTAAGGG (sugars k3 d10 k3, PS) | 41% |
| CAGGACTTGGCAGTCT (sugars k3 d10 k3, PS) | 14% |
| CAGCACAGCGGTACAC (sugars k3 d10 k3, PS) | 7% |
| TTGACCTTAGGATAAT (sugars k3 d10 k3, PS) | 47% |
| ATCAAGTCAAGCTCCT (sugars k3 d10 k3, PS) | 11% |
| TTCAAACTAAGCTACT (sugars k3 d10 k3, PS) | 31% |
| CCTGTTAAGACCATCC (sugars k3 d10 k3, PS) | 40% |
| TCATACACTCACTAGA (sugars k3 d10 k3, PS) | -22% |

| Sequence | target mRNA inhibition |
| --- | --- |
| TTTAACTTCCCCCAGC (sugars k3 d10 k3, PS) | -2% |
| TTGCAGGGACGGTTGA (sugars k3 d10 k3, PS) | -10% |
| ATCCTACCACTCCCAA (sugars k3 d10 k3, PS) | 34% |
| CCCAGTTTGTCAATAG (sugars k3 d10 k3, PS) | 39% |
| ACCGATTATGGATCAT (sugars k3 d10 k3, PS) | 36% |
| TGAAGGATGAAATGCC (sugars k3 d10 k3, PS) | 29% |
| ATGCAATACTGCAGAT (sugars k3 d10 k3, PS) | 1% |
| AAGCGAATGGCTTTGT (sugars k3 d10 k3, PS) | 6% |
| CTACTTTAAGCCTTCG (sugars k3 d10 k3, PS) | 31% |
| TCAGGGTGAGGAAGTA (sugars k3 d10 k3, PS) | 50% |
| GTGTTATGCCTGGTTA (sugars k3 d10 k3, PS) | 2% |
| ATTCTAATAGCAGCGG (sugars k3 d10 k3, PS) | 32% |
| AATTACTCTTGATCTT (sugars k3 d10 k3, PS) | 51% |
| TCAATGCCTACCGCAC (sugars k3 d10 k3, PS) | 3% |
| ACTATTTCTCCAGGAC (sugars k3 d10 k3, PS) | 20% |
| TCCAAAAGAGAACCAC (sugars k3 d10 k3, PS) | 21% |
| ACCTGGAATGGCCAGC (sugars k3 d10 k3, PS) | 21% |
| GAATACCATCTGAAAG (sugars k3 d10 k3, PS) | 16% |
| CAGGGTTATGCTTATT (sugars k3 d10 k3, PS) | 75% and 66% |
| GAGTTTGAGTGGTTTT (sugars k3 d10 k3, PS) | 26% |
| TTAGTAGCTTTTTGAT (sugars k3 d10 k3, PS) | 39% |
| TCCATTACGCAACTGA (sugars k3 d10 k3, PS) | 9% |
| CCGGAAATCGGCCTAC (sugars k3 d10 k3, PS) | 20% |

| Sequence | target mRNA inhibition |
| --- | --- |
| CACCCTCTAAGAGACA (sugars k3 d10 k3, PS) | 1% |
| AGACGGAGAACAACTC (sugars k3 d10 k3, PS) | -14% |
| TTAACTTCCCCCAGCT (sugars k3 d10 k3, PS) | 0% |
| GGCAGTTATATTAGGT (sugars k3 d10 k3, PS) | 16% |
| CTCAAAGTCCAATGCA (sugars k3 d10 k3, PS) | 48% |
| ACGAAACTCCCCCATT (sugars k3 d10 k3, PS) | 36% |
| CTTCGGATGCTTCACT (sugars k3 d10 k3, PS) | 33% |
| ACTCTAAGATTGTAAG (sugars k3 d10 k3, PS) | 25% |
| AGCTCCTGACAAATTA (sugars k3 d10 k3, PS) | 15% |
| TGACCTTAGGATAATA (sugars k3 d10 k3, PS) | 62% |
| CACCTGGGTCAGCTGT (sugars k3 d10 k3, PS) | 25% |
| AAGTTACATGTTCCCA (sugars k3 d10 k3, PS) | 39% |
| CCAACTTGGAAGTTGA (sugars k3 d10 k3, PS) | 31% |
| TCCTGCATGTAAGAAT (sugars k3 d10 k3, PS) | 15% |
| GTCAATTTATAGACCC (sugars k3 d10 k3, PS) | 18% |
| CACCCAAAAGCCCTCT (sugars k3 d10 k3, PS) | 17% |
| ACCGTTTTTCAGCTTC (sugars k3 d10 k3, PS) | -30% |
| TGAGTGAAGTGTACTA (sugars k3 d10 k3, PS) | 42% |
| CAATCCCAACCGTAAC (sugars k3 d10 k3, PS) | 9% |
| GCCAACAGCACAGCGG (sugars k3 d10 k3, PS) | 8% |
| TTTTAATCACCTTCGG (sugars k3 d10 k3, PS) | 44% |
| TCGCACTGGCTCCTGG (sugars k3 d10 k3, PS) | 42% |
| TTACTTCCGTTACGAA (sugars k3 d10 k3, PS) | -8% |

| Sequence | target mRNA inhibition |
| --- | --- |
| CTTCGGTTAAAAATAG (sugars k3 d10 k3, PS) | 4% |
| ATAGAGCTACTTAGCT (sugars k3 d10 k3, PS) | 19% |
| TGCCTTTACTTATCAA (sugars k3 d10 k3, PS) | 26% |
| TTCTAGACAGACCTAA (sugars k3 d10 k3, PS) | 29% |
| CACTCTGATCTGCGGC (sugars k3 d10 k3, PS) | -28% |
| CTTGAATTACTTCCGT (sugars k3 d10 k3, PS) | 56% and 40% |
| GCTCTATACTTTGAAG (sugars k3 d10 k3, PS) | 51% |
| TCCTTCACCAAATCGC (sugars k3 d10 k3, PS) | 36% |
| TTTATCACTCAGCTGG (sugars k3 d10 k3, PS) | 53% |
| GGCTATCAAATTCATT (sugars k3 d10 k3, PS) | 42% |
| TAATGCACTGGTACAC (sugars k3 d10 k3, PS) | -22% |
| CCTTCTATTGGTATTA (sugars k3 d10 k3, PS) | 28% |
| AGAGTAACTACCAGCC (sugars k3 d10 k3, PS) | 55% and 76% |
| GTTAAGTTTTCAGCAG (sugars k3 d10 k3, PS) | 17% |
| AGTAAGCCCCACCCCC (sugars k3 d10 k3, PS) | 29% |
| AGAACTGCTCTAGTTT (sugars k3 d10 k3, PS) | -6% |
| CCCAAATTAATGCACT (sugars k3 d10 k3, PS) | 51% and 42% |
| GTATGAGCTTCAGACC (sugars k3 d10 k3, PS) | -6% |
| TAAACCTGTGGTGGTC (sugars k3 d10 k3, PS) | 30% |
| ATAGTTCAACCCACCA (sugars k3 d10 k3, PS) | 21% |
| TTCTTCGGTTAAAAAT (sugars k3 d10 k3, PS) | 2% |
| CGGAAATCGGCCTACG (sugars k3 d10 k3, PS) | 30% |
| CCTGGGTCAGCTGTCA (sugars k3 d10 k3, PS) | 51% |

| Sequence | target mRNA inhibition |
| --- | --- |
| GCTTAAGAGGGCAGGA (sugars k3 d10 k3, PS) | -7% |
| CATTTGGCCTACTCAA (sugars k3 d10 k3, PS) | 34% |
| GCATCTAGGCCATCAT (sugars k3 d10 k3, PS) | 57% |
| GGTTACCAATAATTTC (sugars k3 d10 k3, PS) | 93% |
| AGTAACCTATTGACTA (sugars k3 d10 k3, PS) | -16% |
| CTGTTAAGACCATCCC (sugars k3 d10 k3, PS) | 46% |
| ATCACAAATACGACTG (sugars k3 d10 k3, PS) | 34% |
| ATGCACTAAAGATCAC (sugars k3 d10 k3, PS) | 34% |
| CAGGCTATTACCTGAA (sugars k3 d10 k3, PS) | -14% |
| TTAGTAACCTATTGAC (sugars k3 d10 k3, PS) | 34% |
| TTAAGAACTCCACAGC (sugars k3 d10 k3, PS) | 46% |
| AATGGAGGTATGACAT (sugars k3 d10 k3, PS) | 5% |
| AGCACTTATCCCTAAC (sugars k3 d10 k3, PS) | 40% |
| CAAAGATATTGTGCTG (sugars k3 d10 k3, PS) | -10% |
| GGAAATCTTAGAAACG (sugars k3 d10 k3, PS) | 36% |
| CCAGGCTGGTTATGAC (sugars k3 d10 k3, PS) | 44% |
| CCACCAAAGACCTCGA (sugars k3 d10 k3, PS) | 27% |
| AGATTCCGTAACTTTA (sugars k3 d10 k3, PS) | 78% and 92% |
| AACTCCACAGCTCTTA (sugars k3 d10 k3, PS) | 41% |
| AGCAGAAGCCCCTGCG (sugars k3 d10 k3, PS) | -1% |
| AAGTCTCGGGCTGCAG (sugars k3 d10 k3, PS) | 4% |
| TTGGCACACTGGCATG (sugars k3 d10 k3, PS) | 24% |

From the OligoGym collection
